How the values were obtained:
[1] = system: Hela cells; experiment: Restoration of contact inhibition in colonies of Hela cells; assay type: cell-based, human
Method: Hela cells, a type of cell derived from human uterine tumor, were seeded in Eagle culture flasks at the concentration of 50 cells/cm^2. The cells were allowed to develop colonies during a period of 10 days with two changes of the medium on the second and sixth day. A tissue culture (minimum essential medium of Eagle with 10% calf serum) comprising amino acids, vitamins and glucose was employed.
2-Amino-2-thiazoline, obtained by treatment of the hydrochloride with a molar equivalent of sodium hydroxide, was added to the medium at varying concentrations on both the second day and the sixth day, after the initiation of the culture. A total of 3 flasks containing the cultured colonies were used for each concentration of 2-amino-2-thiazoline employed. On the tenth day, the cells were fixed in neutral formol and were stained with hematoxyline. A total of 500 colonies of the same size in each flask were counted at random and the percentage of colonies with contact inhibition (planar morphology) or without contact inhibition (pyrimidal or acuminated morphology) were noted.

[2] = system: Lewis Lung carcinoma; experiment: Effect on mouse tumors: survival time, Lewis Lung carcinoma; assay type: in vivo; details: mice inoculated with Lewis Lung carcinoma
Method: (§1) The effect of 2-amino-2-thiazoline on mouse tumors (le'ukemia 1210 and Lewis Lung carcinoma) was also tested. […] However, it is knwon that the cells associated with those tumors are extremely undifferentiated from normal cells so as to have lost all or nearly all of the cytoskeletal system of contractile microfilaments. Such cells would be expected to be insensitive to agents which induce reverse transformation. Leukemia 1210 and Lewis Lung carcinoma are transplantable tumors and, upon transplantation, they have lost the tissue specific membrane receptors which are the target of 2-amino-2-thiazoline.

[3] = system: tumors of various origins; experiment: Preliminary clinical trial in tumors of various origins; assay type: in vivo
From the text: (§2) The preceding description is but illustrative of the practice of the invention and it is to be understood that other expedients may be employed by those skilled in the art without departure from the scope of the invention. Data on human tumors have been provided for bladder cancer because in a preliminary study of the biochemical affinity of 2-amino-2-thiazoline with tumor membrane receptors, the affinity with the bladder tumor receptor was very high. […] Therefore, it is claimed that 2-amino-2-thiazoline is an antitumor agent for mammalian cancer acting without toxicity by inducing reverse transformation.

[4] = Toxicity to humans; assay type: in vivo; details: doses up to at least 100 mg/kg
Method: 2-amino-2-thiazoline and 2-amino-2-thiazoline hydrochloride are also non-toxic to humans in doses up to at least 100 mg/kg. Therefore, the dosage administered can vary over a wide range, without concern that undesirable side-effects will result from large dosages.

[5] = system: Leukemia 1210; experiment: Effect on mouse tumors: survival time, leukemia 1210; assay type: in vivo; details: mice inoculated with leukemia 1210
Method: as §1

[6] = system: bladder tumor receptor; experiment: Preliminary study of biochemical affinity with tumor membrane receptors (bladder); assay type: binding
From the text: as §2

[7] = system: other tumor receptors of different tissue origin; experiment: Preliminary study of biochemical affinity with tumor membrane receptors (other tissues); assay type: binding
From the text: as §2

[8] = system: advanced metastastic bladder cancer; experiment: Clinical trial in patients with advanced metastatic bladder cancer; assay type: in vivo, humans
Method: Clinical trials with 2-amino-2-thiazoline hydrochloride have been conducted on 9 patients suffering from advanced metastastic bladder cancer, not amenable to any other treatment.
Only patients with measurable and progressing bladder tumors and lung metastases the growth rate of which was measured weekly in X-ray plates for serveral weeks before beginning the treatment were admitted to the trial. The development of the bladder tumors was measured by cytos- copy after biopsy.
Each of the patients were intravenously administered 2-amino-2-thiazoline-hydrochloride, as an aqueous solution (25-75 mg/ml) at the dose of 1.5 mg/kg of body weight on a daily basis per 5 days, every three weeks (the first 5 patients), and at dose of 3 mg/kg daily per 5 days every three weeks (the following 4 patients).

[9] = 1 μMol, added on day 2 and day 6, read on day 10
[10] = 2 μMol, added on day 2 and day 6, read on day 10
[11] = 5 μMol, added on day 2 and day 6, read on day 10
[12] = 10 μMol, added on day 2 and day 6, read on day 10
[13] = 20 μMol, added on day 2 and day 6, read on day 10
[14] = patient 1, bladder carcinoma, lesion lung and bladder, total dose 2.5 gr, i.v. 1.5 mg/kg daily per 5 days every three weeks
[15] = patient 2, bladder carcinoma, lesion lung and bladder, total dose 3.2 gr, i.v. 1.5 mg/kg daily per 5 days every three weeks
[16] = patient 3, bladder carcinoma, lesion lung and bladder, total dose 2.8 gr, i.v. 1.5 mg/kg daily per 5 days every three weeks
[17] = patient 4, bladder carcinoma, lesion bladder, total dose 3.7 gr, i.v. 1.5 mg/kg daily per 5 days every three weeks
[18] = patient 5, bladder carcinoma, lesion lung and bladder, total dose 4.9 gr, i.v. 1.5 mg/kg daily per 5 days every three weeks
[19] = patient 6, bladder carcinoma, lesion bladder, total dose 12 gr, i.v. 3 mg/kg daily per 5 days every three weeks
[20] = patient 7, bladder carcinoma, lesion lung and bladder, total dose 9.6 gr, i.v. 3 mg/kg daily per 5 days every three weeks
[21] = patient 8, bladder carcinoma, lesion lung and bladder, total dose 11.8 gr, i.v. 3 mg/kg daily per 5 days every three weeks
[22] = patient 9, bladder carcinoma, lesion lung and bladder, total dose 10.8 gr, i.v. 3 mg/kg daily per 5 days every three weeks

For NC1=NCCS1 [2-Amino-2-thiazoline], which “Colonies without contact inhibition” value [1, 9] is on record?
The value was 42%.

What about the “Total number of colonies” value [1, 9] of the same compound?
Its value is 100%.

What about the “Colonies with contact inhibition” value ([1]; 1 μMol, added on day 2 and day 6, read on day 10, 500 colonies per flask) of the same compound?
The value was 58%.

What about the “Colonies with contact inhibition” value [1, 10] of the same compound?
The value was 59%.

And the “Colonies without contact inhibition” value [1, 10]?
Its value is 41%.

And the “Total number of colonies” value [1, 10]?
The value was 100%.

And the “Colonies with contact inhibition” value [1, 11]?
The value was 75%.

And the “Colonies without contact inhibition” value [1, 11]?
The value was 25%.

What about the “Total number of colonies” value [1, 11] of the same compound?
Its value is 85%.

And the “Colonies with contact inhibition” value [1, 12]?
The value was 86%.

What about the “Colonies without contact inhibition” value [1, 12] of the same compound?
Its value is 14%.

What about the “Total number of colonies” value [1, 12] of the same compound?
The value was 75%.

What about the “Colonies with contact inhibition” value ([1]; 20 μMol (maximum dosage), added on day 2 and day 6, read on day 10) of the same compound?
The value was 100%.

And the “Colonies without contact inhibition” value [1, 13]?
Its value is 0%.

What about the “Total number of colonies” value [1, 13] of the same compound?
Its value is 45%.

What about the “increasing the survival time of the mice” value [2] of the same compound?
The value was “completely inactive”.

What about the clinical response [3] of the same compound?
Its clinical response is “stabilization and minor remissions”.

And the Toxicity [4]?
Its Toxicity is “non-toxic”.

What about the “increasing the survival time of the mice” value [5] of the same compound?
The value was “completely inactive”.

And the “biochemical affinity with tumor membrane receptors” value [6]?
Its value is “very high”.

What about the “affinity for other tumor receptors” value [7] of the same compound?
The value was “shown affinity”.

With Cl.NC1=NCCS1 [2-Amino-2-thiazoline·HCl, 2-amino-2-thiazoline hydrochloride] as the compound, how does the Toxicity [4] read?
Its Toxicity is “non-toxic”.

And the Toxicity ([8]; all 9 patients, i.v. 1.5 or 3 mg/kg daily per 5 days every three weeks)?
Its Toxicity is “None of the patients showed any toxicity”.

What about the “objective responses (mor than 50% reduction of tumor size)” value ([8]; number of responders out of the 9 cases, combined area of lung metastasis and size of the cystoscopic lesion) of the same compound?
The value was 4.

And the Response [8, 14]?
Its Response is “complete remission”.

What about the Toxicity [8, 14] of the same compound?
The Toxicity was “none”.

What about the Response [8, 15] of the same compound?
Its Response is “partial remission”.

And the Toxicity [8, 15]?
The Toxicity was “none”.

And the Response [8, 16]?
The Response was “complete remission”.

What about the Toxicity [8, 16] of the same compound?
Its Toxicity is “none”.

And the Response [8, 17]?
The Response was “stabilization”.

What about the Toxicity [8, 17] of the same compound?
Its Toxicity is “none”.

What about the Response [8, 18] of the same compound?
Its Response is “stabilization”.

And the Toxicity [8, 18]?
Its Toxicity is “none”.

And the Response [8, 19]?
Its Response is “complete remission”.

And the Toxicity [8, 19]?
Its Toxicity is “none”.

What about the Response [8, 20] of the same compound?
The Response was “complete remission”.

And the Toxicity [8, 20]?
The Toxicity was “none”.

What about the Response [8, 21] of the same compound?
The Response was “stabilization”.

And the Toxicity [8, 21]?
Its Toxicity is “none”.

What about the Response [8, 22] of the same compound?
Its Response is “stabilization”.

What about the Toxicity [8, 22] of the same compound?
The Toxicity was “none”.

Reference: patent EP0029697A1, “Pharmaceutical compositions for the treatment of neoplastic diseases and process therefor” (Gosalvez, Mario Gosalvez, priority 1979, dated 1981)
